In PMC5344672 (Journal of medicinal chemistry, 2016):
“Also recorded” adds a separate entry of the source.

Tests used:
MOR-1 = MOR-1 (Mus musculus, UniProt P42866); assay: [35S]GTPγS functional assay, MOR-1 transfected cells; format: biochemical; conditions: in words
DOR-1 = DOR-1 (Mus musculus, UniProt P32300); assay: [35S]GTPγS functional assay, DOR-1 transfected cells; format: biochemical; conditions: in words
mice [1] = assay: Radiant heat tail flick antinociception; format: in vivo, mouse
mice [2] = assay: Antinociceptive tolerance after repeated dosing; format: in vivo, mouse; conditions: twice daily dosing
mice [3] = assay: Gastrointestinal transit; format: in vivo, mouse
C57BL/6 mice = assay: Respiratory rate; format: in vivo, mouse
mice [4] = conditions: mouse, in vivo
KOR-1 = KOR-1 (Mus musculus, UniProt P33534); format: biochemical
Sequence of KOR-1 (P33534 whole entry): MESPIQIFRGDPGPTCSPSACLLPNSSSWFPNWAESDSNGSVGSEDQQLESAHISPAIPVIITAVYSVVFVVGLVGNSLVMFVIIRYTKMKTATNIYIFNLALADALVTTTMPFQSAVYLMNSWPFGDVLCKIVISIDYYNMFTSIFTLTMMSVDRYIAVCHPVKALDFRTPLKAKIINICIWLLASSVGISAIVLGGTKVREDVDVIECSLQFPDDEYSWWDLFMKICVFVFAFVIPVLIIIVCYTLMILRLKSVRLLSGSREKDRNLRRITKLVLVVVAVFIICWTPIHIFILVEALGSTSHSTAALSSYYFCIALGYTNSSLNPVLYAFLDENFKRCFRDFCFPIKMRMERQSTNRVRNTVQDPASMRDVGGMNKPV

[5] = target: panel of other nonopioid drug targets; assay: PDSP screening panel; format: binding; conditions: read-out: Ki at nonopioid drug targets
α2A adrenergic receptor = target: T1, α2A adrenergic receptor (Homo sapiens, UniProt P08913); assay: PDSP screening; format: binding; conditions: in words (Table S1)
T1 sequence (P08913 1-465): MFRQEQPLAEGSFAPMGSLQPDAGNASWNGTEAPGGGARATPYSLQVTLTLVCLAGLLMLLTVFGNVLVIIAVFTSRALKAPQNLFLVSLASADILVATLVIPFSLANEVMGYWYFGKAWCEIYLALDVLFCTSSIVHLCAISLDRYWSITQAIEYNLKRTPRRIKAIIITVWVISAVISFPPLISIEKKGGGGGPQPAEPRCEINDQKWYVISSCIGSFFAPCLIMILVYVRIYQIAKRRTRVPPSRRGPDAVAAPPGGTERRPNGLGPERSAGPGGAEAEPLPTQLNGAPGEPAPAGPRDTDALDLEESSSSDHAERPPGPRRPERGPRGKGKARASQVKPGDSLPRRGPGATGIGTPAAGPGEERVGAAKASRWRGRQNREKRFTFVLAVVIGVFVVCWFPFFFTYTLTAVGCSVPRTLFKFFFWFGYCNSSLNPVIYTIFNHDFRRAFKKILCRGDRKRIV

α2C adrenergic receptor = target: T2, α2C adrenergic receptor (Homo sapiens, UniProt P18825); assay: PDSP screening; format: binding; conditions: in words (Table S1)
T2 sequence (P18825 1-462): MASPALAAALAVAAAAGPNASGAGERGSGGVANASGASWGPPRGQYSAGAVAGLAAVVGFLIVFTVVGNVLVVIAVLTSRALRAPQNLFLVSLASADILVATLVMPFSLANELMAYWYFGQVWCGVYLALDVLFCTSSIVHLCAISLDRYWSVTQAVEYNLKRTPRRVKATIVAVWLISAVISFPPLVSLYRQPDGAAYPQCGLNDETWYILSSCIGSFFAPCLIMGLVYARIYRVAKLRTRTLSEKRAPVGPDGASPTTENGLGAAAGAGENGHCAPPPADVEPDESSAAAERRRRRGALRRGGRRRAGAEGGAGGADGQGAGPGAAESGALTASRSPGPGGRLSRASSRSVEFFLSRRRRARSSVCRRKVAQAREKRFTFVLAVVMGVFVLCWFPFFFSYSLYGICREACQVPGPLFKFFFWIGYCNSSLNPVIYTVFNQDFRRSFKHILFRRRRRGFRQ

5HT7 = 5HT7 (Homo sapiens, UniProt P34969); assay: PDSP screening; format: binding; conditions: in words (Table S1)
Sequence of 5HT7 (P34969 whole entry, species assumed): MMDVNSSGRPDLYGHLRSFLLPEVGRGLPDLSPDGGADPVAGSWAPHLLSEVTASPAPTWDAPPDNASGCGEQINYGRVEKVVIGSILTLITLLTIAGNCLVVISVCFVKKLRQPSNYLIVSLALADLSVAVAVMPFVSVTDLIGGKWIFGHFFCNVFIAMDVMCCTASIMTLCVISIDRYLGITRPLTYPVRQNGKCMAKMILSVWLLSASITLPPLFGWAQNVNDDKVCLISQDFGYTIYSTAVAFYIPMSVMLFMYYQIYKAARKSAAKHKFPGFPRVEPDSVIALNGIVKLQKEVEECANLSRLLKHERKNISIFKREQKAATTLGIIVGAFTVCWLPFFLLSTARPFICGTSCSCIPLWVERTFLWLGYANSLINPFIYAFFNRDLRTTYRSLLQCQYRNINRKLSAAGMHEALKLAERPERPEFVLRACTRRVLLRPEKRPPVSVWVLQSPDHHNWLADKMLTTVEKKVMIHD

CD1 mice = assay: Reversal of tail flick antinociception by selective antagonists; format: in vivo, mouse; conditions: 3 1.5 mg/kg sc; β-FNA 40 mg/kg, norBNI 10 mg/kg, NTI 0.5 mg/kg, naloxone 1 mg/kg, yohimbine 10 mg/kg
mice [6] = assay: Antisense oligodeoxynucleotide mapping of tail flick antinociception; format: in vivo, mouse; conditions: 3 1.5 mg/kg sc, antisense icv days 1, 3, 5, test day 6
[7] = dose twice analgesic ED50: morphine 5 mg/kg sc, 3 1.5 mg/kg sc
[8] = higher dose: morphine 10 mg/kg, 3 3 mg/kg sc
[9] = ~2× analgesic ED50: morphine 5 mg/kg sc, 3 1.2 mg/kg sc

Sequence of MOR-1 (P42866 whole entry): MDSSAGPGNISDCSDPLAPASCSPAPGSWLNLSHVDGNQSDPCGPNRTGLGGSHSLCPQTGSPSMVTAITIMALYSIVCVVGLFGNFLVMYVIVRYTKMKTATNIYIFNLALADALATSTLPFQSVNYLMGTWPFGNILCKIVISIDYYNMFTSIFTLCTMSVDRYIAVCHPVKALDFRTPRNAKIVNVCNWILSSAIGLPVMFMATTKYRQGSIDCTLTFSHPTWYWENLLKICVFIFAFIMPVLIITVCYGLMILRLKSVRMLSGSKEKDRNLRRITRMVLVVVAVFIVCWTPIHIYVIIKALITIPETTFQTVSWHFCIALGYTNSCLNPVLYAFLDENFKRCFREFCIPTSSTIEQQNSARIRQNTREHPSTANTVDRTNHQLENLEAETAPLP
Sequence of DOR-1 (P32300 whole entry): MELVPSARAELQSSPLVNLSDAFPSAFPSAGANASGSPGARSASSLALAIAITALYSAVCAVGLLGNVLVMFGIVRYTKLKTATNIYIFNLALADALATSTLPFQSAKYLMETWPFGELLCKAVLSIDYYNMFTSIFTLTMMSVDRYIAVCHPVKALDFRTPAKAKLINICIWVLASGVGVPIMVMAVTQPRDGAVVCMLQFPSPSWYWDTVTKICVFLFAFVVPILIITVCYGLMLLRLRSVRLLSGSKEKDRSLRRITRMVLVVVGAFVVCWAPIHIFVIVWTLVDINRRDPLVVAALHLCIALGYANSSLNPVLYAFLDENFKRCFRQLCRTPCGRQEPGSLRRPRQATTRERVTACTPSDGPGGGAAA

## CC[C@@H]1CN2CC[C@]3(Nc4cccc(-c5ccoc5)c4C3=O)[C@@H]2C[C@@H]1/C(=C\OC)C(=O)OC [Compound 9, (E)-Methyl-2-((1′S,6′S,7′S)-6′-ethyl-4-(furan-3-yl)-3-oxo-3′,5′,6′,7′,8′,8a′-hexahydro-2′H-spiro[indoline-2,1′-indolizine]-7′-yl)-3-methoxyacrylate]
MOR-1
  functional character at MOR-1: MOR-1 agonists
DOR-1
  functional character at DOR-1: DOR-1 antagonists

## CC[C@@H]1CN2CC[C@]3(Nc4cccc(C#N)c4C3=O)[C@@H]2C[C@@H]1/C(=C\OC)C(=O)OC [Compound 7, (E)-Methyl-2-((1′S,6′S,7′S)-4-cyano-6′-ethyl-3-oxo-3′,5′,6′,7′,8′,8a′-hexahydro-2′H-spiro[indoline-2,1′-indolizine]-7′-yl)-3-methoxyacrylate]
MOR-1
  functional character at MOR-1: MOR-1 agonists
DOR-1
  functional character at DOR-1: DOR-1 antagonists

## CN1CC[C@]23c4c5ccc(O)c4O[C@H]2[C@@H](O)C=C[C@H]3[C@H]1C5 [morphine, reference compound]
Mice [1]; Mus musculus, sc, 0.25 h, read-out: antinociception sc, ED50 mg/kg (CI)
  ED50: 2.5 mg/kg
Mice [2]; day 5
  ED50 after 5 days: 12.1 (7.6–19.4) mg/kg
Mice [3]; [7]
  effect on gastrointestinal transit: almost totally eliminated transit
C57BL/6 mice; [8]
  decrease of respiratory rate: approximately 50%
C57BL/6 mice; [9]
  decrease of respiratory rate: approximately 30%
Mice [4]
  conditioned place preference or aversion: significant conditioned place preference

## CC[C@@H]1CN2CC[C@]3(Nc4ccccc4C3=O)[C@@H]2C[C@@H]1/C(=C\OC)C(=O)OC [Compound 6, (E)-Methyl-2-((1′S,6′S,7′S)-6′-ethyl-3-oxo-3′,5′,6′,7′,8′,8a′-hexahydro-2′H-spiro[indoline-2,1′-indolizin]-7′-yl)-3-methoxyacrylate]
MOR-1
  functional character at MOR-1: MOR-1 agonists
DOR-1
  functional character at DOR-1: DOR-1 antagonists

## CC[C@@H]1CN2CC[C@@]3(O)C(=Nc4cccc(OC)c43)[C@@H]2C[C@@H]1/C(=C\OC)C(=O)OC [Compound 2, (E)-Methyl-2-((2S,3S,7aS)-3-ethyl-7a-hydroxy-8-methoxy-1,2,3,4,6,7,7a,12b-octahydroindolo[2,3-a]quinolizin-2-yl)-3-methoxyacrylate]
MOR-1
  functional character at MOR-1: partial agonist
KOR-1
  functional character at KOR-1: weak KOR-1 and DOR-1 antagonist
DOR-1
  functional character at DOR-1: weak KOR-1 and DOR-1 antagonist
[5]
  Ki: > 10 µM

## CC[C@@H]1CN2CC[C@]3(Nc4cccc(OC)c4C3=O)[C@@H]2C[C@@H]1/C(=C\OC)C(=O)OC [Compound 3, (E)-Methyl-2-((1′S,6′S,7′S)-6′-ethyl-4-methoxy-3-oxo-3′,5′,6′,7′,8′,8a′-hexahydro-2′H-spiro[indoline-2,1′-indolizine]-7′-yl)-3-methoxyacrylate]
MOR-1
  functional character at MOR-1: potent full agonist
KOR-1
  functional character at KOR-1: antagonist
DOR-1
  functional character at DOR-1: antagonist
Mice [1]; CD1, C57BL/6 and 129Sv6 mice, sc (Figure S5)
  antinociceptive activity across mouse strains: equally active
Mice [1]; CD1 mice, icv, tail flick, 15 min
  ED50 (95% CI), intracerebroventricular: 0.38 (0.18- 0.81) μg
Mice [1]; E1/E11 MOR-1 KO mice, sc, tail flick
  ED50, exon 1/exon 11 double KO mice: no antinociception was observed
α2A adrenergic receptor
  affinity at α2A adrenergic receptor: poor affinity
α2C adrenergic receptor
  affinity at α2C adrenergic receptor: poor affinity
5HT7
  affinity at 5HT7: poor affinity
Mice [2]
  ED50 shift after 5 days: < 2 fold
Mice [2]; 95% CI 42.27 to 65.67
  mean difference between 3 and morphine groups on day 5: 53.97 %MPE
Mice [3]; 3 at 4 mg/kg sc
  effect on gastrointestinal transit: no further inhibition
Mice [3]; [7]
  effect on gastrointestinal transit: lowered gastrointestinal transit, but not nearly as much as morphine
C57BL/6 mice; [8]
  decrease of respiratory rate: approximately 15%
C57BL/6 mice; [9]
  decrease of respiratory rate: no respiratory depression
CD1 mice
  sensitivity of antinociception to antagonists: insensitive to NTI, norBNI, and yohimbine; also recorded: antagonized by β-FNA and naloxone
Mice [6]
  effect of antisense receptor downregulation on analgesic response: only affected in mu receptor downregulated mice (MOR-1 AN)
Mice [4]
  conditioned place preference or aversion: neither preference or aversive behavior

## CC[C@@H]1CN2CC[C@]3(Nc4cccc(O)c4C3=O)[C@@H]2C[C@@H]1/C(=C\OC)C(=O)OC [Compound 4, (E)-Methyl-2-((1′S,6′S,7′S)-6′-ethyl-4-hydroxy-3-oxo-3′,5′,6′,7′,8′,8a′-hexahydro-2′H-spiro[indoline-2,1′-indolizine]-7′-yl)-3-methoxyacrylate]
MOR-1
  functional character at MOR-1: MOR-1 agonists
DOR-1
  functional character at DOR-1: DOR-1 antagonists

## CC[C@@H]1CN2CC[C@]3(Nc4cccc(-c5ccccc5)c4C3=O)[C@@H]2C[C@@H]1/C(=C\OC)C(=O)OC [Compound 8, (E)-Methyl-2-((1′S,6′S,7′S)-6′-ethyl-3-oxo-4-phenyl-3′,5′,6′,7′,8′,8a′-hexahydro-2′H-spiro[indoline-2,1′-indolizine]-7′-yl)-3-methoxyacrylate]
MOR-1
  functional character at MOR-1: dual MOR-1/DOR-1 agonist
DOR-1
  functional character at DOR-1: dual MOR-1/DOR-1 agonist
